Results: patent US5510332A, “Process to inhibit binding of the integrin α4 62 1 to VCAM-1 or fibronectin and linear peptides therefor” (priority 1994, dated 1996)
Where a SMILES comes first, the peptide text is derived from it. Where no end group is shown, it is not given here.

target: T1, binding of α4 β1 integrin to VCAM-1 (Homo sapiens, UniProt P05556+P13612); test: Cell-protein assay: calcein-labelled Ramos cells binding to VCAM-mouse IgG fusion protein on magnetic beads; type: cell-based; settings: less than about 100; assay format not stated
T1 construct: endogenous in cells; host or cells: Ramos (human B-cell line) for endogenous α4β1; the VCAM-mouse IgG fusion was made in house, secreted from transfected COS cells and captured on goat anti-mouse IgG Dynal beads
From the text: The VCAM-1 binding assays involved assessing the ability of cells that express α4 β1 to bind cells expressing VCAM (cell-cell assay) or to bind purified VCAM protein (cell-protein assay). The integrin-expressing cell types used in these assays included the human B-cell line, Ramos, and the human promyelocytic line, HL-60. The cell-cell assay was used to compare the relative potency of peptides at a single dose. The cell-protein assay was used to generate dose response curves and determine IC50 values.
An expression vector was designed such that a region of VCAM known to bind the integrin was-expressed as a fusion protein with mouse IgG. A cDNA containing the two N-terminal domains of human VCAM was generated by the polymerase chain reaction (PCR) from a full length VCAM cDNA. Similarly, a cDNA containing the hinge, CH2 and CH3 regions of mouse IgG2A was amplified by PCR from cDNA made from total RNA isolated from the hybridoma cell line 402C10. The VCAM cDNA was ligated to the mouse IgG cDNA and cloned into a mammalian expression vector. […] The media was collected and active protein was purified by immunoprecipitation using Dynal magnetic polystyrene beads coated with goat anti-mouse IgG. Following immunoprecipitation, the beads bound Ramos cells that expressed the integrin α4 β1.
Ramos cells were fluorescently labeled with calcein AM (Molecular Probes) and resuspended in 1 ml of binding buffer (Hanks' balanced salt solution, pH 7.4, 1.0 mM CaCl2, 1.0 mM MgCl2 and 1.0 mM MnCl2). The beads (10 μl, 4×10^6 beads/ml) were placed in wells of a 96-well microtiter dish with 10 μl of peptide at various concentrations. The beads were incubated with 10 μl of labeled cells (10^7 cells/ml) for 10 min at room temperature. Following immobilization of the beads onto the plastic with a magnet, unbound cells were removed by washing three times with binding buffer. The remaining bound cells were lysed in 50 mM Tris, pH 7.4, 5.0 mM EDTA, 1.0% NP-40 and quantitated by fluorimetry using a Millipore Cytofluor 2350 fluorimeter. Dose response curves were calculated and IC50 values determined. Peptides having the amino acid residue sequences of SEQ ID NOs:8-102 were tested for their ability to inhibit the binding of α4 β1 integrin to VCAM-1.

T1 sequence (P13612 34-1032): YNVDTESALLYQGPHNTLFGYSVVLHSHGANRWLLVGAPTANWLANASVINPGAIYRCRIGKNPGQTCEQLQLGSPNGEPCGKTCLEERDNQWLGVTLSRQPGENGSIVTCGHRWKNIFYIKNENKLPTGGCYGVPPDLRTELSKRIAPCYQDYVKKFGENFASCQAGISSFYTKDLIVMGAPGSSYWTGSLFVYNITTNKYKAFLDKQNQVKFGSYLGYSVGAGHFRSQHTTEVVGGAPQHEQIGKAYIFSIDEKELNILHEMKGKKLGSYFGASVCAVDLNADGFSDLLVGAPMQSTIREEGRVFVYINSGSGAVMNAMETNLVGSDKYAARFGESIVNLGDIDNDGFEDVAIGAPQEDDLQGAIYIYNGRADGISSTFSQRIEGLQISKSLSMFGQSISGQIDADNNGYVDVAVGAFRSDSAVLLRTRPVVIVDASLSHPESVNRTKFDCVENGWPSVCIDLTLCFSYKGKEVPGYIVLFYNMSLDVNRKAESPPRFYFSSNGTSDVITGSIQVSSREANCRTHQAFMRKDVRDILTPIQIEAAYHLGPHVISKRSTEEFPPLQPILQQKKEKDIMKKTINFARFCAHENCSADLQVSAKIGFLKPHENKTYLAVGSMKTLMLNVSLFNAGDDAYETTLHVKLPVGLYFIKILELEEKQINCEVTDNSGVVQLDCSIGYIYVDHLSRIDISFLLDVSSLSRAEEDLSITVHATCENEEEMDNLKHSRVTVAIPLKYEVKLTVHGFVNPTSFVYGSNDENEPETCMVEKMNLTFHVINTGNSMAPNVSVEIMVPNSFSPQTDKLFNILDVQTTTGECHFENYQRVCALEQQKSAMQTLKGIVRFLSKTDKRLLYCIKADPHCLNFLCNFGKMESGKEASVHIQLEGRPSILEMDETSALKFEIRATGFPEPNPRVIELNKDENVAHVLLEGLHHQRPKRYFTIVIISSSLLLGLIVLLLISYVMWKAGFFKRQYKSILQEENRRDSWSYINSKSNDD
T1 sequence (P05556 21-798): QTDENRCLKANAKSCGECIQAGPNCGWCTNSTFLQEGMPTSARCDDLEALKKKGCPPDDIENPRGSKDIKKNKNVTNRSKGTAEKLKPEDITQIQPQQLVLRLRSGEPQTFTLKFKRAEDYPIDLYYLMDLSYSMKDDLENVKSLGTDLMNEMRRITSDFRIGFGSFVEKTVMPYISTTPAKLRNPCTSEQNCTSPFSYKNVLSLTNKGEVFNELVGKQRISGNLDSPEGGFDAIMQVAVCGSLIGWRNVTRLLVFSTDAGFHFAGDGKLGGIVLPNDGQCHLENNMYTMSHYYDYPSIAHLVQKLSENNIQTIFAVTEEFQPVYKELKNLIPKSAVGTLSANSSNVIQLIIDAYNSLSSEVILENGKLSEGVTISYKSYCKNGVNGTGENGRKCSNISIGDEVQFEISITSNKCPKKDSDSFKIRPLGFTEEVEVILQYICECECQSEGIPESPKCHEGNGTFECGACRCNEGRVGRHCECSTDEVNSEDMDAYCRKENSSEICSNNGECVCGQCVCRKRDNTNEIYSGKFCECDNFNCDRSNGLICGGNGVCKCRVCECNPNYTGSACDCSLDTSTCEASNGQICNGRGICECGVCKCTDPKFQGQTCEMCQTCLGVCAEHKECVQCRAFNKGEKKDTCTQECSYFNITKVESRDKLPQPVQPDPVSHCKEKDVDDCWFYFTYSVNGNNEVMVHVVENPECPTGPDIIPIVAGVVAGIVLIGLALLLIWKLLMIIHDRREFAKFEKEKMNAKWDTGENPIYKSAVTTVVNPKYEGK

peptide concentration at which binding of α4 β1 to VCAM-1 is significantly inhibited | Compound
less than 100 μM | CC(=O)N[C@@H](Cc1c[nH]c2ccccc12)C(=O)N[C@@H](CC(C)C)C(=O)N[C@@H](CC(=O)O)C(=O)N[C@H](C(N)=O)C(C)C [SEQ ID NO:11, Ac-Trp-Leu-Asp-Val-amide] (Ac-WLDV-NH2)

target: T2, binding of the integrin α4 β1 to VCAM (Homo sapiens, UniProt P05556+P13612); test: Cell-cell assay: 35S-labelled Ramos cells binding to VCAM expressing CHO cells; type: cell-based; settings: single concentration at which SEQ ID NO:9 gives approximately 50% inhibition of adhesion; SEQ ID NO:9 = 1.00; >2.00 indicates little or no inhibition of VCAM-α4 β1 binding
T2 construct: endogenous in cells; host or cells: Ramos (human B-cell line) for endogenous α4β1; CHO cells stably transfected with human VCAM cDNA for the counter-receptor
From the text: The VCAM-1 binding assays involved assessing the ability of cells that express α4 β1 to bind cells expressing VCAM (cell-cell assay) or to bind purified VCAM protein (cell-protein assay). The integrin-expressing cell types used in these assays included the human B-cell line, Ramos, and the human promyelocytic line, HL-60. The cell-cell assay was used to compare the relative potency of peptides at a single dose. The cell-protein assay was used to generate dose response curves and determine IC50 values. A human VCAM cDNA was amplified by the polymerase chain reaction (PCR) from cDNA reverse transcribed from RNA isolated from human umbilical vein endothelial cells. The VCAM cDNA was ligated into a mammalian expression vector and electroporated into chinese hamster ovary (CHO) cells. Cells were grown in G418 selective media and clones expressing high levels of VCAM were selected by FACS analysis. VCAM expressing CHO cells and nontransfected CHO cells were plated in 48 well cluster dishes at a density of 50,000 cells/well 24 hour prior to assay. The dishes were washed with binding buffer (DMEM, 1% BSA, 1.0 mM MnCl2, 0.02% sodium azide, pH 7.4) immediately prior to assay. […] Unbound cells were removed by washing with binding buffer and the remaining bound cells were lysed with 50 mM Tris, pH 8.0, 150 mM NaCl, 1% SDS and transferred to scintillation vials for quantitation.

T2 sequence (P13612 34-1032): as the sequence (P13612 34-1032) above
T2 sequence (P05556 21-798): as the sequence (P05556 21-798) above

Compound | relative quantity of adhered cells in relationship to peptide SEQ ID NO:9
GPEWLDKP-NH2 [SEQ ID NO:9 V→K] | 2.68
GPHWLDVP-NH2 [SEQ ID NO:9 E→H, Gly-Pro-His-Trp-Leu-Asp-Val-Pro-amide] | 1.23
GPEWLPVP-NH2 [SEQ ID NO:9 D→P, Gly-Pro-Glu-Trp-Leu-Pro-Val-Pro-amide] | 2.19
GPEWLDQP-NH2 [SEQ ID NO:9 V→Q] | 1.97
GPMWLDVP-NH2 [SEQ ID NO:9 E→M, Gly-Pro-Met-Trp-Leu-Asp-Val-Pro-amide] | 1.42
GPEWLDEP-NH2 [SEQ ID NO:9 V→E, Gly-Pro-Glu-Trp-Leu-Asp-Glu-Pro-amide] | 2.33
GPSWLDVP-NH2 [SEQ ID NO:9 E→S, Gly-Pro-Ser-Trp-Leu-Asp-Val-Pro-amide] | 0.85
GPECLDVP-NH2 [SEQ ID NO:9 W→C, Gly-Pro-Glu-Cys-Leu-Asp-Val-Pro-amide] | 1.45
GPEWLDHP-NH2 [SEQ ID NO:9 V→H] | 1.77
GPYWLDVP-NH2 [SEQ ID NO:9 E→Y, Gly-Pro-Tyr-Trp-Leu-Asp-Val-Pro-amide] | 0.96
GPEWLDDP-NH2 [SEQ ID NO:9 V→D, Gly-Pro-Glu-Trp-Leu-Asp-Asp-Pro-amide] | 2.39
GPEWLDNP-NH2 [SEQ ID NO:9 V→N] | 2.31
GPLWLDVP-NH2 [SEQ ID NO:9 E→L, Gly-Pro-Leu-Trp-Leu-Asp-Val-Pro-amide] | 1.62
GPEWLDFP-NH2 [SEQ ID NO:9 V→F, Gly-Pro-Glu-Trp-Leu-Asp-Phe-Pro-amide] | 1.13
GPDWLDVP-NH2 [SEQ ID NO:9 E→D, Gly-Pro-Asp-Trp-Leu-Asp-Val-Pro-amide] | 1.54
GPEWLDGP-NH2 [SEQ ID NO:9 V→G] | 1.67
GPEWLQVP-NH2 [SEQ ID NO:9 D→Q, Gly-Pro-Glu-Trp-Leu-Gln-Val-Pro-amide] | 2.35
GPIWLDVP-NH2 [SEQ ID NO:9 E→I, Gly-Pro-Ile-Trp-Leu-Asp-Val-Pro-amide] | 1.44
GPEWLDPP-NH2 [SEQ ID NO:9 V→P] | 2.45
GPWWLDVP-NH2 [SEQ ID NO:9 E→W, Gly-Pro-Trp-Trp-Leu-Asp-Val-Pro-amide] | 1.17
GPEWLDLP-NH2 [SEQ ID NO:9 V→L] | 1.54
GPTWLDVP-NH2 [SEQ ID NO:9 E→T, Gly-Pro-Thr-Trp-Leu-Asp-Val-Pro-amide] | 0.98
GPEWLDYP-NH2 [SEQ ID NO:9 V→Y, Gly-Pro-Glu-Trp-Leu-Asp-Tyr-Pro-amide] | 0.80
GPEWLEVP-NH2 [SEQ ID NO:9 D→E, Gly-Pro-Glu-Trp-Leu-Glu-Val-Pro-amide] | 1.77
GPAWLDVP-NH2 [SEQ ID NO:9 E→A, Gly-Pro-Ala-Trp-Leu-Asp-Val-Pro-amide] | 1.47
GPEALDVP-NH2 [SEQ ID NO:9 W→A, Gly-Pro-Glu-Ala-Leu-Asp-Val-Pro-amide] | 1.64
GPQWLDVP-NH2 [SEQ ID NO:9 E→Q, Gly-ProoGln-Trp-Leu-Asp-Val-Pro-amide] | 0.93
GPGWLDVP-NH2 [SEQ ID NO:9 E→G, Gly-Pro-Gly-Trp-Leu-Asp-Val-Pro-amide] | 1.33

Continued, values first:

relative quantity of adhered cells in relationship to peptide SEQ ID NO:9 | Compound
1.94 | GPEWLFVP-NH2 [SEQ ID NO:9 D→F, Gly-Pro-GluoTrp-Leu-Phe-Val-Pro-amide]
1.54 | GPEWLDSP-NH2 [SEQ ID NO:9 V→S]
1.34 | GPKWLDVP-NH2 [SEQ ID NO:9 E→K, Gly-Pro-Lys-Trp-Leu-Asp-Val-Pro-amide]
1.64 | GPFWLDVP-NH2 [SEQ ID NO:9 E→F, Gly-Pro-Phe-Trp-Leu-Asp-Val-Pro-amide]
1.78 | GPEWLCVP-NH2 [SEQ ID NO:9 D→C, Gly-Pro-Glu-Trp-Leu-Cys-Val-Pro-amide]
0.98 | GPPWLDVP-NH2 [SEQ ID NO:9 E→P, Gly-Pro-Pro-Trp-Leu-Asp-Val-Pro-amide]
2.46 | GPEWLDMP-NH2 [SEQ ID NO:9 V→M]
1.49 | GPCWLDVP-NH2 [SEQ ID NO:9 E→C, Gly-Pro-Cys-Trp-Leu-Asp-Val-Pro-amide]
1.81 | GPEWLDIP-NH2 [SEQ ID NO:9 V→I]
1.52 | GPEWLDRP-NH2 [SEQ ID NO:9 V→R]
1.52 | GPRWLDVP-NH2 [SEQ ID NO:9 E→R, Gly-Pro-Arg-Trp-Leu-Asp-Val-Pro-amide]
1.62 | GPEDLDVP-NH2 [SEQ ID NO:9 W→D, Gly-Pro-Glu-Asp-Leu-Asp-Val-Pro-amide]
1.08 | GPEWLDWP-NH2 [SEQ ID NO:9 V→W, Gly-Pro-Glu-Trp-Leu-Asp-Trp-Pro-amide]
1.04 | GPVWLDVP-NH2 [SEQ ID NO:9 E→V, Gly-Pro-Val-Trp-Leu-Asp-Val-Pro-amide]
1.76 | GPEWLMVP-NH2 [SEQ ID NO:9 D→M, Gly-Pro-Glu-Trp-Leu-Met-Val-Pro-amide]
2.14 | GPEWLRVP-NH2 [SEQ ID NO:9 D→R, Gly-Pro-Glu-Trp-Leu-Arg-Val-Pro-amide]
1.74 | GPEWLKVP-NH2 [SEQ ID NO:9 D→K, Gly-Pro-Glu-Trp-Leu-Lys-Val-Pro-amide]
0.94 | GPNWLDVP-NH2 [SEQ ID NO:9 E→N, Gly-Pro-Asn-Trp-Leu-Asp-Val-Pro-amide]
1.74 | GPEWLHVP-NH2 [SEQ ID NO:9 D→H, Gly-Pro-Glu-Trp-Leu-His-Val-Pro-amide]
